# Measured values: article PMC8188608 (Chemical Science, 2021)
# Target: ΔmtDXPS (Mycobacterium tuberculosis, UniProt P9WNS3, D231G/I229G/K230G/L233G/S232G/S234G)
# Assay type: binding
compound,measurement,value
O=C(CCCOc1ccc(Cl)cc1Cl)NCCc1ccc(O)cc1F [Compound 39],fold decrease in binding affinity for ΔmtDXPS,~1.5 fold
